Measured values taken from patent US20120196854A1, “PHARMACEUTICAL COMPOSITION COMPRISING AROMATIC HETEROCYCLIC COMPOUND” (Kyowa Hakko Kirin Co., Ltd., priority 2009, published 2012).

target: T1, human H-PGDS (Homo sapiens, UniProt O60760); assay: H-PGDS inhibitory activity (Prostaglandin D Synthase Inhibitor Screening Assay Kit); assay type: biochemical; conditions: at a concentration of 1 μmol/L; read-out: H-PGDS inhibitory rate
T1 construct: purchased Cayman Chemical 10006593
Method: The H-PGDS inhibitory activity of Compound (I) was calculated according to the following protocol attached to Prostaglandin D Synthase Inhibitor Screening Assay Kit (Cat. No. 10006595, Cayman Chemical, Ann Arbor, Mich., USA).
(§1) First, to a 96-well round-bottom plate (Cat. No. 3882-096, Asahi Techno Glass, Chiba), 60 μL/well of an enzyme assay buffer (0.1 mol/L Tris-HCl, pH 8.0), 10 μL/well of a human H-PGDS [Cat. No. 10006593 (human), Cayman Chemical, Ann Arbor, Mich., USA] at a final concentration of 0.125 μg/mL, 10 μL/well of reduced glutathione at a final concentration of 1 mmol/L, and 10 μL/well of Compound (I) diluted with the enzyme assay buffer were added and lightly mixed. The plate was allowed to stand at room temperature for 10 minutes, and then 10 μL/well of prostaglandin H2(PGH2) (Cat. No. 17020, Cayman Chemical) at a final concentration of 50 μmol/L was added thereto to start enzyme reaction. The reaction was allowed to proceed with mixing by a plate mixer for 1 minute. After the enzyme reaction, 10 μL/well of a 4 mg/mL FeCl2-HCl solution prepared by dissolving FeCl2 in 1 mol/L hydrochloric acid was added to stop the reaction and reduce PGH2 simultaneously. The enzyme reaction solution (100 μL/well) was transferred to a 96-well UV-Star half area plate (Cat. No. 675801, Greiner, Frickenhausen, Germany), and measured for absorbance at 232 nm using a microplate reader Power Wave (BioTek Instrument Inc., Winooski, Vt., USA).
The H-PGDS inhibitory activity (inhibitory rate) of Compound (I) was calculated by the following formula.
The H-PGDS inhibitory activity of Compound 133 was calculated according to the following protocol attached to Prostaglandin D Synthase Inhibitor Screening Assay Kit (Cat. No. 10006595, Cayman Chemical, Ann Arbor, Mich., USA).
as §1, with “133” for “(I)”
The H-PGDS inhibitory activity (inhibitory rate) of Compound 133 was calculated according to the method in Test Example 1.

T1 sequence (O60760 whole entry): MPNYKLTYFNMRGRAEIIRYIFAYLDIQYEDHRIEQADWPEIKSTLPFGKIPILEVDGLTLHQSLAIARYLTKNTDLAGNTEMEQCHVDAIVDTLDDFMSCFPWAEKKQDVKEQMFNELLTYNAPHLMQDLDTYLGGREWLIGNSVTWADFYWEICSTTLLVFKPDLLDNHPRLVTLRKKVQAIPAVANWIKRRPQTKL

Row | SMILES | inhibition at 1 µM [%]
1 | O=C(O)c1cc(-c2ccc(NS(=O)(=O)c3ccccc3)cc2)nc2ccc3nn(-c4ccccc4)nc3c12 [Compound 15, 7-(4-benzenesulfonylaminophenyl)-2-phenyl-2H[1,2,3]triazolo[4,5-f]quinoline-9-carboxylic acid] | ≥ 80
2 | O=C(O)c1cc(-c2cnn(Cc3ccccc3)c2)nc2ccc3nn(-c4cccc(F)c4)nc3c12 [Compound 116, 7-(1-benzyl-1H-pyrazol-4-yl)-2-(3-fluorophenyl)-2H-[1,2,3]-triazolo[4,5-f]quinoline-9-carboxylic acid] | ≥ 80
3 | O=C(NS(=O)(=O)c1ccccc1)c1cccc(-c2cc(C(=O)O)c3c(ccc4nn(-c5ccccc5)nc43)n2)c1 [Compound 26, 7-(3-benzenesulfonylaminocarbonylphenyl)-2-phenyl-2H[1,2,3]triazolo[4,5-f]quinoline-9-carboxylic acid] | ≥ 80
4 | O=C(O)c1cc(-c2cc(C(=O)O)c3c(ccc4nn(-c5cccc(F)c5)nc43)n2)c[nH]1 [Compound 76, 7-(5-carboxy-1H-pyrrol-3-yl)-2-(3-fluorophenyl)-2H-[1,2,3]-triazolo[4,5-f]quinoline-9-carboxylic acid] | ≥ 80
5 | Cc1cccc(-n2nc3ccc4nc(-c5ccco5)cc(C(=O)O)c4c3n2)c1 [Compound 102, 7-(furan-2-yl)-2-(3-methylphenyl)-2H-[1,2,3]triazolo[4,5-f]quinoline-9-carboxylic acid] | ≥ 80
6 | CS(=O)(=O)NC(=O)c1ccc(-c2cc(C(=O)O)c3c(ccc4nn(-c5ccccc5)nc43)n2)cc1 [Compound 13, 7-(4-methanesulfonylaminocarbonylphenyl)-2-phenyl-2H[1,2,3]triazolo[4,5-f]quinoline-9-carboxylic acid] | ≥ 80
7 | CS(=O)(=O)NC(=O)c1cccc(-c2cc(C(=O)O)c3c(ccc4nn(-c5ccccc5)nc43)n2)c1 [Compound 17, 7-(3-methanesulfonylaminocarbonylphenyl)-2-phenyl-2H[1,2,3]triazolo[4,5-f]quinoline-9-carboxylic acid] | ≥ 80
8 | CS(=O)(=O)Nc1ccc(-c2cc(C(=O)O)c3c(ccc4nn(-c5ccccc5)nc43)n2)cc1 [Compound 6, 7-(4-methanesulfonylaminophenyl)-2-phenyl-2H[1,2,3]triazolo[4,5-f]quinoline-9-carboxylic acid] | ≥ 80
9 | O=C(O)c1cc(-c2ccc(NS(=O)(=O)c3ccccc3)cc2)nc2ccc3nc(-c4ccccc4)oc3c12 [Compound 53, 7-(4-benzenesulfonylaminophenyl)-2-phenyloxazolo[5,4-f]-quinoline-9-carboxylic acid] | ≥ 80
10 | O=C(NS(=O)(=O)c1ccccc1)c1ccc(-c2cc(C(=O)O)c3c(ccc4nn(-c5ccccc5)nc43)n2)cc1 [Compound 28, 7-(4-benzenesulfonylaminocarbonylphenyl)-2-phenyl-2H[1,2,3]triazolo[4,5-f]quinoline-9-carboxylic acid] | ≥ 80

tested on: PGD2 production in mouse ear; assay: Inhibitory effect on PGD2 production in mouse ear caused by allergic reaction; assay type: in vivo; conditions: 3 mg/kg orally, 1 hour before inducing antigen-antibody reaction; BALB/c mice
Method: A test of PGD2 production in the mouse ear caused by allergic reaction was conducted according to the evaluation method of passive cutaneous anaphylaxis in the mouse ear by Inagaki et al. (Int.Arch.AllergyAppl. Immunol., 1988, 86 (3), 325-30) with some alteration. […]
One hour after the induction of antigen-antibody reaction, the mice were killed by cervical dislocation and the ears were cut off with scissors. […] The harvested pieces of ear tissue were immediately frozen in liquid nitrogen, and preserved at −80° C. until measurement of the quantity of PGD2.
The quantity of PGD2 was determined in the following manner. […]

Row | SMILES | inhibition of PGD2 production in mouse ear caused by allergic reaction [%]
11 | Cc1cccc(-n2nc3ccc4nc(-c5ccco5)cc(C(=O)O)c4c3n2)c1 [Compound 102, 7-(furan-2-yl)-2-(3-methylphenyl)-2H-[1,2,3]triazolo[4,5-f]quinoline-9-carboxylic acid] | 84
